Reference: patent US10919949B2, “Acylated insulin analogues and uses thereof” (Novo Nordisk A/S, priority 2017, dated 2021)

What was measured:
AKT and ERK = test: Insulin receptor signalling via AKT and ERK phosphorylation in CHO-hIR cells (Western blot / Surefire); type: cell-based, Chinese hamster; settings: 10 min stimulation, Table 1A
Experimental: Insulin receptor (IR) signalling of the analogues of this invention via AKT and ERK pathways was assessed either by traditional Western blotting technique or by the use of Surefire, alphascreen technique.
In brief, CHO-hIR cells were stimulated for 10 min with increasing concentrations of the insulin analogue, washed in ice-cold PBS, snap-frozen and lysed in lysis buffer (Biosource). Equal amounts of proteins were loaded on gels and blotted to nitrocellulose membranes. Phosphorylated AKT and ERK were visualised with Phospho-AKT (Ser473) (Cell signalling #9271) and pMAPK 44/42 ERK1/2 rabbit (Cell Signalling #4376) antibodies, respectively. Band intensities were evaluated using a LAS3000 (Fuji).
The responsiveness value (Span) for each analogue was calculated using non-linear regression in GraphPad Prism 7 from GraphPad Software Inc and expresses as percent of the responsiveness of insulin (% max AKT or % max ERK)

isolated rat adipocytes = test: Lipogenesis in rat free fat cell assay; type: cell-based
Experimental: The metabolic potency of the insulin derivatives of the invention was determined by lipogenesis using isolated rat adipocytes.
In brief, epididymal fat pads were removed from killed Sprague-Dawley rats and placed in degradation buffer with collagenase (Worthington) in order to degrade the fat pads into a single-cell suspension. […] The incubation was stopped by addition of MicroScint-E (PerkinElmer), and the plates counted in a TopCount NXT (PerkinElmer).

[1] = 0.1% HSA as printed, Table 1A second lipogenesis column
[2] = 0.1% HSA, Table 1A first lipogenesis column

Substance | % maxERK/% maxAKT (AKT and ERK) | Lipogenesis 0.1% HSA EC50 (% of human insulin) (isolated rat adipocytes; [1]) | Lipogenesis 0.1% HSA EC50 (% of human insulin) (isolated rat adipocytes; [2])
N{Epsilon-B28}-[(4R)-4-[(3R,10S,13R,17R)-3-hydroxy-10,13-dimethyl-2,3,4,5,6,7,8,9,11,12,14,15,16,17-tetradecahydro-1H-cyclopenta[a]phenanthren-17-yl]pentanoyl]-[TyrB5,LysB28],des-(B29-B30)-Insulin [Example 9] | 0.29 | 0.49 % of human insulin | 0.40 % of human insulin
N{Epsilon-B28}-[(4S)-4-carboxy-4-[[(4R)-4-[(3R,10S,13R,17R)-3-hydroxy-10,13-dimethyl-2,3,4,5,6,7,8,9,11,12,14,15,16,17-tetradecahydro-1H-cyclopenta[a]phenanthren-17-yl]pentanoyl]amino]butanoyl]-[TyrB5,LysB28],des-(B29-B30)-Insulin [Example 8] | 0.32 | 0.72 % of human insulin | 1.76 % of human insulin
